Here are results for three molecules from ChEMBL document CHEMBL1150644, “Corticatic acids D and E, polyacetylenic geranylgeranyltransferase type I inhibitors, from the marine sponge Petrosia corticata” (J Nat Prod, 2002).

In one test the test system is Candida albicans. The experiment in a line: Antimicrobial activity against Candida albicans. The test is classed as functional.
Test [1] in a line: Inhibition of Candida albicans GGTase 1 by streptavidin scintillation proximity assay. (In general: Scintillation proximity formats need no separation of bound from free tracer.)

Converted amounts (≈) assume the structure as drawn.

For `C#CC(O)/C=C/CCCCCC#CC/C=C\CCCCCCCCCCC/C=C\C#CC(=O)O` (centres undefined) [CORTICATIC ACID A], it took 54 µM (≈ 25.1 µg/mL) to inhibit growth with Candida albicans (MIC). In test [1], inhibition was half-maximal at 1.9 µM (IC50).
As to `C#C[C@H](O)/C=C/CCCCC/C=C\C/C=C\CCCCCCCCCCC/C=C\C#CC(=O)O` [CORTICATIC ACID E], the midpoint of inhibition in test [1], the IC50, lay at 7.3 µM. That is a single-digit micromolar value.
`C#C[C@H](O)/C=C/CCCCCC#C/C=C/C(O)CCCCCCCCCCC/C=C\C#CC(=O)O` (some centres undefined) [CORTICATIC ACID D]: the concentration for half-maximal inhibition (IC50) (in general, the concentration that gives 50% inhibition) in test [1] worked out at 3.3 µM.
